Columns and labels:
Cathepsin L = molecular target: T1, Cathepsin L (Homo sapiens, UniProt P07711); assay: Ki against cathepsin L (Z-FR-AMC); type: biochemical; conditions: SigmaPlot at 3 different substrate concentrations; pH 5.5
T1 construct: made in house; host or cells: E. coli
Procedure: (§1) Recombinant or native human cathepsins were used: recombinant cathepsin X and cathepsin S were expressed in Pichia pastoris, recombinant cathepsins B and L in E. coli, [43], native cathepsin H was isolated from human liver. Assay buffers for determining activities of cathepsins X and L consisted of 100 mM sodium acetate buffer, pH 5.5, for cathepsins H, S and B (endopeptidase activity) of 100 mM phosphate buffer pH 6.8, 6.5 and 6.0, respectively and for cathepsin B (exopeptidase activity) of 60 mM acetate buffer pH 5.0. Each assay buffer contained 0.01% Triton X-100 to prevent false positive inhibition due to aggregation of compounds[45], 5 mM cysteine, 1.5 mM EDTA and 0.1% PEG 8000. Enzymes were activated at 37 °C for 5 min before the assays.
(§2) Ki was determined by measuring the initial rate of hydrolysis at three different substrate concentrations (Supplementary Table S2) in the presence of seven different compound concentrations (0, 20, 40, 60, 80, 100 and 200 μM). 90 μL of the activated cathepsin was added to a black 96-well plate with 5 μL of the substrate and 5 μL of the compound. Formation of the fluorescent degradation product was monitored continuously at 460 nm ± 10 nm with excitation at 380 nm ± 20 nm (for AMC substrates) and, as noted above for Abz substrates, at 37 °C. All measurements were performed twice and in duplicate. The resulting data were analyzed by non-linear regression using the software SigmaPlot®, Enzyme Kinetics Module™ 1.3 and were fitted to the equation v = v max [S]/([S] (1 + [I]/αK i ) + K m (1 + [I]/K i )) (first group of compounds). For Ki determination against cathepsin X for the compounds from the second group, progress curves in the absence and presence of each putative inhibitor were fitted to the reaction mechanism presented in Fig. 3b. In this case the resulting data as well as reactivation curves were fitted to the equation system presented in Fig. 3c using ENZO application. For calculation of kinetic parameters from reaction progress curves the fluorescence coefficient for conversion of arbitrary fluorescence units to concentration was first determined. The fluorescence coefficient was calculated as the slope from the plot of initial substrate concentration vs. height of the plateau of the progress curve after complete hydrolysis of increasing concentrations of substrate, using linear regression.
(§3) Supplementary Table S2. Substrates used for the various cathepsins and their concentrations […]
(§4) Enzyme Substrate Concentration (µM) Reference/Company cathepsin X Abz-FEK(Dnp)-OH 3.25, 6.5, 13 Puzer et al.3 cathepsin B - endopept. Z-RR-AMC 60, 180, 360 Bachem cathepsin B - exopept. Abz-GIVRAK(Dnp)-OH 1, 3, 6 Bachem cathepsin S Z-VVR-AMC 0.5, 1, 1.5 Biomol cathepsin L Z-FR-AMC 0.5, 1, 4 Bachem cathepsin H Z-R-AMC 20, 80, 160 Biomol […]

Cathepsin H = molecular target: T2, Cathepsin H (Homo sapiens, UniProt P09668); assay: Ki against cathepsin H (Z-R-AMC); type: biochemical; conditions: SigmaPlot at 3 different substrate concentrations; pH 6.8
T2 construct: native cathepsin H was isolated from human liver; from tissue; host or cells: human liver
T2 sequence (P09668 116-335 limits assumed, other chains not shown): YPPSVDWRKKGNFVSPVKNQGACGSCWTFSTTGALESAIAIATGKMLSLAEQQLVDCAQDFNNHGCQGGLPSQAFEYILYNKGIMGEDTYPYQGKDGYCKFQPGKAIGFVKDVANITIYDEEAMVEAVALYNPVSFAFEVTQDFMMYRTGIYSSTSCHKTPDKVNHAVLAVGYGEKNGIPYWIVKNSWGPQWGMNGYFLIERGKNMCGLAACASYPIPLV
Procedure: as §1, §2, §3, §4

PC-3 cells = assay: Cytotoxicity assay (MTS) in PC-3 cells; type: cell-based, human; conditions: up to 10 μM, 24 and 48 hours
Procedure: (§5) Human prostate cancer cell line PC-3 cells (obtained from ATCC, Manassas, USA; ATCC Number: CRL-1435) were cultured in F-12 (Gibco) and Advanced DMEM (Gibco) (1:1) with 10% FBS, 1% penicillin/streptomycin and 1% L-glutamine. Rat pheochromocytoma PC-12 cells (obtained from ATCC, Manassas, USA; ATCC Number: CRL-1721) were cultured in Advanced DMEM (Gibco) with 5% FBS, 10% heat-inactivated horse serum, 1% penicillin/streptomycin and 1% L-glutamine.
(§6) 6.5 × 10^4 PC-3 cells/ml were seeded in a 96-well plate. PC-12 cells were seeded on poly-L-lysine (Sigma) coated plates in serum-free medium at a concentration of 4 × 10^4/well. Cells were treated with various concentrations of compounds (1, 2.5, 5 and 10 μM) for 24 or 48 hours. Cytotoxicity was determined with MTS reagent (CellTiter 96 Aqueous One Solution Cell Proliferation Assay, Promega) and A492 measured after 1 hour.

PC-12 cells [1] = assay: Cytotoxicity assay (MTS) in PC-12 cells; type: cell-based, rat; conditions: up to 10 μM, 24 and 48 hours
Procedure: as §5, §6

PC-12 cells [2] = assay: Neurite outgrowth assay; type: cell-based, rat; conditions: 10 µM; 48 h; vs DMSO control
Procedure: as §5
PC-12 cells were seeded in 96-well plates (4 × 10^4/well) coated with poly-L-lysine. Next day, the cells were treated with compounds (10 µM) in serum-free medium, and neurite outgrowth was measured after 48 h using Neurite Outgrowth Staining Kit (Molecular Probes), in accordance with the manufacturer’s instructions. Fluorescence intensity was measured at 525 nm with excitation at 483 nm for cell viability indicator and at 567 nm with excitation at 554 nm for cell membrane indicator. Results, expressing increased neurite outgrowth, were normalized to cells treated with DMSO.

cathepsin B = molecular target: T3, cathepsin B (Homo sapiens, UniProt P07858); assay: Labeling of cathepsin B with activity-based probe DCG-04 in PC-3 cell lysate; type: biochemical; conditions: 10 µM inhibitor
T3 construct: endogenous in cells; host or cells: PC-3

PC-12 cells [3] = assay: Determination of F-actin content of cells (phalloidin-TRITC fluorescence microscopy); type: cell-based, rat; conditions: 10 µM, 2 h
Procedure: For the fluorescence staining of F-actin, PC-12 cells were cultured on glass coverslips coated with poly-L-lysine (4 × 10^4/ml). Next day, cells were treated with compounds (10 µM) in serum-free medium for 2 h. The cells were then fixed in 5% formalin (w/v) in PBS (pH 7.4) for 5 min and permeabilized with 0.1% Triton X-100 in PBS for 3 min. After washing with PBS, cells were incubated with phalloidin-TRITC (500 ng/mL) (Sigma) in 20 mM TrisHCl (pH 7.4) at 37 °C for 30 min. After additional washing with PBS, the Prolong Antifade kit was used for mounting the coverslips on glass slides. Fluorescence microscopy was performed using an Olympus IX 81 motorized inverted microscope.

cathepsin X = cathepsin X (Homo sapiens, UniProt Q9UBR2); assay: Determination of Ki values and inhibition mechanism against cathepsin X (Abz-FEK(Dnp)-OH substrate); type: biochemical; design: made in house; host or cells: Pichia pastoris; conditions: second group
Chain of cathepsin X (Q9UBR2 62-303): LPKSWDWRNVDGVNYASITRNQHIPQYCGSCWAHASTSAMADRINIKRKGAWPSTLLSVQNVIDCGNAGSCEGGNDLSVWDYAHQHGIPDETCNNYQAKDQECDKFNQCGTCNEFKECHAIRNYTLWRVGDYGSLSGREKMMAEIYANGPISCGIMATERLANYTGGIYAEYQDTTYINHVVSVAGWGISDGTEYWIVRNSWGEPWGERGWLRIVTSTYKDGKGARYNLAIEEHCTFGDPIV
Procedure: as §1, §2, §3, §4

T1 sequence (P07711 114-333): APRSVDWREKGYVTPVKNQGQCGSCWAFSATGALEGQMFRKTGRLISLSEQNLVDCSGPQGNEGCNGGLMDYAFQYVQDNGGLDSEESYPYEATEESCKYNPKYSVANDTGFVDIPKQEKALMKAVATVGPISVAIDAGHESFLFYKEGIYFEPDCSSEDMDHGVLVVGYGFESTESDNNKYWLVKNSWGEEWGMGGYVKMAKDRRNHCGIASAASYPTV

- Ki Cathepsin L (Cathepsin L): n.i.
- Ki (Cathepsin H): > 1000 µM
- inhibition of cathepsin B labeling by DCG-04 (cathepsin B): weak inhibition
- Inhibition mechanism (cathepsin X; ENZO): competitive
- Ki (cathepsin X; progress curve analysis with ENZO): 2.45 ± 0.05 µM
Compound: CC(C)n1cnnc1SCC(=O)c1ccc2c(c1)OCCO2 [Compound 22, 1-(2,3-Dihydrobenzo[b][1,4]dioxin-6-yl)-2-((4-isopropyl-4H-1,2,4-triazol-3-yl)thio)ethan-1-one]
- cytotoxicity to PC-3 cells (PC-3 cells): not cytotoxic
- cytotoxicity to PC-12 cells (PC-12 cells [1]): not cytotoxic
- increase of neurite outgrowth (PC-12 cells [2]): 85%
- actin polymerization (PC-12 cells [3]): increased actin polymerization
